The record followed here is patent EP0539204B1 (priority 1991, dated 1993).

Experiment [1] concerns influenza B/Victoria/102/85. As to the kind of experiment: microbe, parasite or virus in culture. The format is cell-based. The note with it: for IC50: Influenza B virus, MDCK, 72 h, read-out: I50 Plaque Assay Flu B.
For experiment [2], the system named is influenza A/Singapore/1/57 (H2N2). Nature of the experiment: microbe, parasite or virus in culture. Format: cell-based. The note with it: for I50 Plaque Assay Flu A: reduction of viral plaque formation in MDCK cells, 3 days at 37°C; for IC50: Influenza A virus, H2N2, MDCK, 72 h, read-out: I50 Plaque Assay Flu A.
Experiment [3] deals with N2 influenza neuraminidase (Influenza A virus, UniProt Q91MA2). Nature of the experiment: biochemical. The format is biochemical, influenza virus (virion X31). To be noted: for NA1: pH 6.5.

Values after ≈ are worked out from the molar mass of the structure shown.

Sequence of N2 influenza neuraminidase (Q91MA2 whole entry, looked up): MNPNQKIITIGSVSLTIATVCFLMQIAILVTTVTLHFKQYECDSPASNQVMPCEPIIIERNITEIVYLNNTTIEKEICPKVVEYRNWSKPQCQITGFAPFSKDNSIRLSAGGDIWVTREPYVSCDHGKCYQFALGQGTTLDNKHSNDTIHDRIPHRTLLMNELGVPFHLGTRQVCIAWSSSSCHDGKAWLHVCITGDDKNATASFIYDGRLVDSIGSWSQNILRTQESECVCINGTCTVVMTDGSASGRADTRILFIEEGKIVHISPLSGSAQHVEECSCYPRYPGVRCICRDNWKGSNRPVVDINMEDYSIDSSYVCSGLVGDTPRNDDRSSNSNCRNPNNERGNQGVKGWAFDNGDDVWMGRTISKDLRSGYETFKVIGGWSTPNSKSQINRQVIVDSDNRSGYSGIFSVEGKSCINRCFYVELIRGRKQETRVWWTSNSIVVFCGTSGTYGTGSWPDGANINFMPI

“5-(Acetylamino)-4-[[amino(aminoimino)methyl]amino]-2,6-anhydro-3,4,5-trideoxy-D-glycero-D-galacto-non-2-enonic acid [Example 1]”: the “I50 Plaque Assay Flu B” value in experiment [1] is 3.0 µg/mL. Besides, the “I50 Plaque Assay Flu A” value in experiment [2] stood at 2.9 µg/mL. Further, the NA1 in experiment [3] is 1.3 µg/mL.

In the case of `CNC(=N)N[C@H]1C=C(C(=O)O)O[C@@H]([C@H](O)[C@H](O)CO)[C@@H]1NC(C)=O` [Example 3, 5-(Acetylamino)-4-[[amino(methylimino)methyl]amino]-2,6-anhydro-3,4,5-trideoxy-D-glycero-D-galacto-non-2-enonic acid], the IC50 in experiment [2] was 3 µg/mL (≈ 8.66 µM); in experiment [3], 12.1 µM.

Regarding `CC(=O)N[C@H]1[C@H]([C@H](O)[C@H](O)CO)OC(C(=O)O)=C[C@@H]1NC(=N)N[N+](=O)[O-]` [Example 4, 5-(Acetylamino)-4-[[amino(nitroimino)methyl]amino]-2,6-anhydro-3,4,5-trideoxy-D-glycero-D-galacto-non-2-enonic acid], the IC50 in experiment [1] was 24 µg/mL (≈ 63.6 µM); in experiment [2], 30 µg/mL (≈ 79.5 µM); in experiment [3], 2.65 µM.

Regarding “5-(Acetylamino)-4-[[amino(hydroxyimino)methyl]amino]-2,6-anhydro-3,4,5-trideoxy-D-glycero-D-galacto-non-2-enonic acid [Example 2]”, the “I50 Plaque Assay Flu B” value in experiment [1] is less than 0.1 µg/mL. Moreover, in experiment [2], the “I50 Plaque Assay Flu A” value is 0.1 µg/mL. The compound further gave an NA1 in experiment [3] of 0.6 µg/mL.

Consider `CCOC(=O)NC(=N)N[C@H]1C=C(C(=O)O)O[C@@H]([C@H](O)[C@H](O)CO)[C@@H]1NC(C)=O` [Example 5, 5-(Acetylamino)-4-[[amino(ethoxycarbonylimino)methyl]amino]-2,6-anhydro-3,4,5-trideoxy-D-glycero-D-galacto-non-2-enonic acid], for which the IC50 in experiment [1] is 0.6 µg/mL (≈ 1.48 µM); in experiment [2] it was 1.7 µg/mL (≈ 4.2 µM); in experiment [3], 17.1 µM.
